In series [1] the test system is human fibroblast cell lines. Nature of the series: toxicity in non-tumor cells (images). In kind it is cell-based. As to conditions: doses up to 20 μM, 48 hours. The text has this:
(§1) FIGS. 4A through 4H depict that small Molecule KRAS Inhibition Reduces Proliferation and Induces Apoptosis in Melanoma. FIGS. 4A and 4B show proliferation (slope of cell index) of Mel Juso (FIG. 4A) and Mel Im (FIG. 4B) cells treated with DMSO and different concentrations of the KRAS small molecule inhibitor Deltarasin (DR). The cell index as dimensionless parameter for cell proliferative ability was used to determine the half maximal inhibitory concentration (IC50, small graphs) of DR. […] FIG. 4D illustrates exemplary images of different melanoma cell lines (Mel Im, Mel Juso and Mel Ei) treated with 5 μM DR or 5 μM DMSO, respectively, for 24 hours. FIGS. 4E and 4F show images of fibroblast cell lines derived from two different donors (F1, F2) and melanocytes (NHEM) treated DR (20 μM, 48 hours) or DMSO (FIG. 4E), and lactate dehydrogenase (LDH) quantification (FIG. 4F) in cell supernatants (optic density, OD) of NHEM after treatment with low dose DMSO, DR (5 μM), and DR (10 μM), respectively.

A further series deals with melanoma cells. Nature of the series: lactate dehydrogenase (LDH) quantification in cell supernatants after low dose DR. In kind it is cell-based, human. As to conditions: low dose DR (2 μM), 24 hours.
Series [2] deals with Htz19 melanoma cells. Nature of the series: three-dimensional colony formation assay. In kind it is cell-based, human. As to conditions: Htz19 (BRAFi primary sensitive); DR 5 μM, PLX 10 μM, alone or combined.
Series [3] deals with Mel Juso cells. Nature of the series: long-term treatment, emergence of surviving tumor cells and drug resistance. As to conditions: 28 days, IC50 or 2×IC50. In kind it is cell-based, human.
Series [4] concerns Mel Juso cells. Put plainly: three-dimensional, anchorage-independent colony-forming assay. It is filed as cell-based, human. As to conditions: Mel Juso (BRAFi primary resistant); DR 5 μM, PLX 10 μM, alone or combined. The text has this:
FIGS. 5A through 5D show time-dependent measurement of colony diameters (exemplary data in top panels) in three-dimensional, anchorage-independent “colony-forming” assays (FIGS. 5A and 5B: Mel Im, FIGS. 5C and 5D: Mel Juso). Exemplary Images (middle) and corresponding quantification of colony diameters (bottom panels, summarized data of n=3 experiments at day 19 after seeding) are also depicted. […] Effects on i) colony formation (FIGS. 5A and 5C, treatment at day 1) and ii) proliferation of pre-formed colonies (FIGS. 5B and 5D, treatment at day 7 and 13) were analyzed. […] Cells were treated for 5 hours with DMSO, 5 μM Deltarasin (DR), 10 μM PLX, or a combination of 10 μM PLX and 5 μM DR. […] (FIG. 5H) Mel Im and Mel Juso were transfected with control si-RNA (si-CTR) or with si-KRAS (si-KR). Two subgroups (blue and red) were additionally treated with 10 μM PLX (Vemurafenib) for 24 hours, with subsequent flow cytometric quantification of tumor cell apoptosis according to FIG. 5G.

Series [5] relates to Mel Im cells. Nature of the series: real-time cell proliferation (slope of cell index). As to conditions: different concentrations of DR vs DMSO. In kind it is cell-based, human.
From the text: as §1

For series [6], the system named is Mel Juso cells. Put plainly: real-time cell proliferation (slope of cell index). In kind it is cell-based, human. Conditions: different concentrations of DR vs DMSO.
From the text: as §1

For series [7], the system named is murine hepatoma cell line Hepa129. Put plainly: apoptosis by FACS analysis. It is filed as cell-based. Conditions: 24 hours. The method, then:
(§2) FIGS. 12A through 12C depict Murine Hepatoma Cells (Hepta129) Sensitive for Small Molecule KRAS Inhibition in vitro and in vivo. […] is exemplary images (4-fold) depicting murine Hepatoma Cells (Hepa129) treated for 24 hours with Deltarasin (DR) and/or Sorafenib (SF) using different concentration of inhibitors.
A general note: Flow cytometry measures light scatter and fluorescence of single cells or particles in a stream.

The test system of series [8] is Mel Im cells. Nature of the series: three-dimensional, anchorage-independent colony-forming assay. In kind it is cell-based, human. Conditions: Mel Im (BRAFi primary sensitive); DR 5 μM, PLX 10 μM, alone or combined.
Another series has as its system PLC. Conditions: DR doses.
Series [9] deals with murine hepatoma cell line Hepa129. Nature of the series: cell cycle FACS analysis (propidium iodide staining). Conditions: 5-6 hours of treatment. In kind it is cell-based. From the text:
FIG. 13 depicts Deltarasin Inducing G2/M-Cell Cycle Arrest in Murine HCC Cells.

Series [10] concerns Htz19 melanoma cells. Put plainly: FACS analysis of apoptosis. It is filed as cell-based, human. Conditions: 5 hours, 5 μM DR.
The test system of the next series is PLC cells. Nature of the series: Western blot pERK- and pAKT protein levels. In kind it is cell-based, human. Conditions: Deltarasin vs DMSO. A general note: A western blot detects proteins with antibodies after separation by electrophoresis.
Series [11] concerns murine hepatoma cell line Hepa129. Put plainly: viable cells counted by microscopy. It is filed as cell-based. As to conditions: 24 hours. The method, then:
as §2

The next series deals with HCC cells. Nature of the series: anchorage-dependent tumor cell growth. In kind it is cell-based, human. Conditions: low doses (6 μM).
For series [12], the system named is Mel Im cells. Put plainly: FACS analysis of apoptosis (Annexin / propidium iodide). It is filed as cell-based, human.
From the text: as §1
(§3) FIGS. 5A through 5D show time-dependent measurement of colony diameters (exemplary data in top panels) in three-dimensional, anchorage-independent “colony-forming” assays (FIGS. 5A and 5B: Mel Im, FIGS. 5C and 5D: Mel Juso). Exemplary Images (middle) and corresponding quantification of colony diameters (bottom panels, summarized data of n=3 experiments at day 19 after seeding) are also depicted. Treatments were performed in four different groups (10 μM DMSO, 5 μM Deltarasin=DR, M PLX-4032=PLX (vemurafenib), or combination of 10 μM PLX+[…]). Effects on i) colony formation (FIGS. 5A and 5C, treatment at day 1) and ii) proliferation of pre-formed colonies (FIGS. 5B and 5D, treatment at day 7 and 13) were analyzed. […] FIG. 5F show images of PLX-primary resistant Mel Juso cells treated with DMSO, DR (5 μM), high dose PLX (20 μM) and a combination of 5 μM DR+10 μM PLX for 24 hours. […] Cells were treated for 5 hours with DMSO, 5 μM Deltarasin (DR), 10 μM PLX, or a combination of 10 μM PLX and 5 μM DR. According to exemplary images for Annexin and propidium iodide (PI) staining are depicted for Mel Im. (FIG. 5H) Mel Im and Mel Juso were transfected with control si-RNA (si-CTR) or with si-KRAS (si-KR). Two subgroups (blue and red) were additionally treated with 10 μM PLX (Vemurafenib) for 24 hours, with subsequent flow cytometric quantification of tumor cell apoptosis according to FIG. 5G. Exemplary images for Annexin and propidium iodide (PI) staining are depicted for Mel Im.

For series [13], the system named is Mel Juso cells. Described as above. In kind it is cell-based, human.
From the text: as §1, §3

The mark [14] stands for this setting: 5 hours, 5 μM DR, 10 μM PLX or combination.

On to `c1ccc(Cn2c(-c3ccc(OC[C@H](C4CCNCC4)n4c(-c5ccccc5)nc5ccccc54)cc3)nc3ccccc32)cc1` [Deltarasin, (S)-1-Benzyl-2-(4-(2-(2-phenyl-1H-benzo[d]imidazol-1-yl)-2-(piperidin-4-yl)ethoxy)phenyl)-1H-benzo[d]imidazole], for which the “toxic effects in human fibroblast cell lines” value in series [1] is on record as “no toxic effects”. Besides, the “lactate dehydrogenase (LDH) amounts in cell supernatants” value in the series on melanoma cells was “sufficient to increase lactate dehydrogenase (LDH) amounts”. Moreover, the “three-dimensional colony formation and proliferation of pre-formed colonies” value in the series on Htz19 melanoma cells [2] and in the series with Mel Im cells [8] was “similarly effective as PLX” in each case. Besides, the “surviving tumor cells after long-term treatment” value in the series with Mel Juso cells [3] is given as “no surviving tumor cells were detected”. Further, the “three-dimensional colony formation and colony proliferation” value in the series with Mel Juso cells [4] is recorded as “markedly inhibited”. For the same compound, the “inhibition of proliferation (slope of cell index)” value in the series with Mel Im cells [5] and with Mel Juso cells [6] was “dose-dependent inhibition of proliferation” in each case. In addition, the apoptosis entry in series [7] was “marked effects”. Moreover, the inhibition of proliferation entry in the series with PLC is recorded as “strong dose-dependent inhibition of proliferation”. The “G2/M-Cell Cycle Arrest” value in series [9] is listed as “dose-dependently induces”. Moreover, in [9], the SubG1 fractions result was “increased”. The “apoptosis (FACS), short treatment” value in the series on Htz19 melanoma cells [10] is reported as “only slightly induced apoptosis”; in the series on Mel Im cells [12] (setting [14]), “only slightly induced apoptosis”; in the series on Mel Juso cells [13] (setting [14]) it was “did not induce apoptosis”. In addition, in the series on PLC cells, the “pERK- and pAKT protein levels” value was “significant reduction”. In series [11], the “tumor cell proliferation (viable cells)” value is “marked effects”. Moreover, in the series on HCC cells, the “anchorage-dependent tumor cell growth” value is reported as “suppressed”. Also, the “induction of apoptosis (FACS)” value in the series with Mel Im cells [12] (5 μM for 8, 16 and 24 hours) was “marked time-dependent induction of apoptosis”; in the series on Mel Juso cells [13] (5 μM for 8, 16 and 24 hours), “marked time-dependent induction of apoptosis”.

The record behind these values is patent publication US20200147058A1, “KRAS INHIBITOR FOR USE IN TREATING CANCER” (Friedrich-Alexander-Universitat Erlangen-Numberg, priority 2016, published 2020).
